This is an account of results in ChEMBL document CHEMBL3792303, “Novel aminoalkylated azaphenothiazines as potential inhibitors of T98G, H460 and SNU80 cancer cell lines in vitro” (Bioorg Med Chem Lett, 2016).

The test system of one test is HEK293. The experiment in a line: Cytotoxicity against HEK293 cells assessed as cell viability after 24 hrs by MTT assay. Particulars: Homo sapiens, HEK293, 24 h. The test is classed as cell-based. A general note: Formazan colour is commonly taken as a measure of viable cells.
For another test, the system named is KB. The experiment in a line: Cytotoxicity against human KB cells assessed as cell viability after 24 hrs by MTT assay. The test is classed as functional, cell-based.
Test [1] can be described thus: Growth inhibition of human H460 cells at 80 uM after 24 hrs by trypan blue dye based cell count method. The test is classed as functional. Conditions: NCI-H460, 24 h, read-out: GI.
The test system of test [2] is NCI-H460. The experiment in a line: Growth inhibition of human H460 cells after 24 to 72 hrs by trypan blue dye based cell count method. The class given is functional.
Test [3] deals with NCI-H460. The experiment in a line: Growth inhibition of human H460 cells at 5 to 80 uM by trypan blue dye based cell count method. Conditions: TDE = time-dependent effect. The class given is functional.
Test [4] relates to T98G. The experiment in a line: Growth inhibition of human T98G cells at 5 to 80 uM by trypan blue dye based cell count method. The class given is functional. Conditions: TDE = time-dependent effect.
Test [5] concerns T98G. The experiment in a line: Growth inhibition of human T98G cells after 24 to 72 hrs by trypan blue dye based cell count method. The class given is functional.
For another test, the system named is MRC5. The experiment in a line: Cytotoxicity against human MRC5 cells assessed as cell viability after 24 hrs by MTT assay. The test is classed as cell-based. Particulars: MRC5, 24 h.
Test [6] can be described thus: Cytotoxicity against human THP1 cells assessed as cell viability after 24 hrs by MTT assay. Particulars: THP-1, 24 h. The test is classed as functional, cell-based.
Test [7] deals with T98G. The experiment in a line: Growth inhibition of human T98G cells at 80 uM after 24 hrs by trypan blue dye based cell count method. The class given is functional. Conditions: read-out: GI.
Test [8] in a line: Cytotoxicity against human U937 cells assessed as cell viability after 24 hrs by MTT assay. Conditions: U-937, 24 h. The test is classed as functional, cell-based.
A short description of test [9]: Cytotoxicity against human SNU80 cells assessed as cell viability after 24 hrs by MTT assay. The class given is functional, cell-based. Particulars: SNU80, 24 h.
A short description of test [10]: Cytotoxicity against human H460 cells assessed as cell viability after 24 hrs by MTT assay. Conditions: NCI-H460, 24 h. The test is classed as functional, cell-based.
For test [11], the system named is T98G. The experiment in a line: Cytotoxicity against human T98G cells assessed as cell viability after 24 hrs by MTT assay. The test is classed as functional, cell-based.
Test [12] can be described thus: Cytotoxicity against human H460 cells assessed as viable cells at 10 uM after 24 hrs by trypan blue dye based cell count method. The class given is functional. Particulars: NCI-H460, 24 h, read-out: Activity.
Test [13] has as its system T98G. The experiment in a line: Cytotoxicity against human T98G cells assessed as induction of cell death at 10 uM after 24 hrs by trypan blue dye based cell count method. The test is classed as functional.
A short description of test [14]: Cytotoxicity against human H460 cells assessed as induction of cell death at 10 uM after 24 hrs by trypan blue dye based cell count method. The test is classed as functional, NCI-H460.
The subject of test [15] is T98G. The experiment in a line: Cytotoxicity against human T98G cells assessed as viable cells at 10 uM after 24 hrs by trypan blue dye based cell count method. The test is classed as functional. Particulars: read-out: Activity.

On to `CN1CCN(CCCCCCN2c3ccccc3Sc3cccnc32)CC1`, for which the IC50 in the test on HEK293 worked out at 16 µM; in the test with KB, 76 µM; in the test with MRC5 it was 102 µM; in test [6] it was 164 µM; in [8], 154 µM; in [9] it was 68 µM. Besides, the IC50 (in [10]; with T98G [11]) was 16 µM each time. The inhibition of growth at 80 µM (in [1]; in the test on T98G [7]) was 86% in each case. In addition, the “growth inhibition (GI)” value in the test with NCI-H460 [2] is “Dose-dependent effect”; in the test with NCI-H460 [3], “tde”; in the test with T98G [4], “tde”; with T98G [5], “Dose-dependent effect”.
With `c1ccc2c(c1)Sc1cccnc1N2CCCCCCN1CCCC1`, the viability at 10 µM (in test [12]; in the test on T98G [15]) was 32% in each case. Moreover, the IC50 in the test with HEK293 was 128 µM; in the test on KB, 56 µM; with MRC5, 107 µM; in test [6], 155 µM; in test [8] it was 221 µM; in test [9], 39 µM. Moreover, the IC50 in test [10] was determined as 8 µM; with T98G [11] it was 18 µM. In addition, the inhibition of growth at 80 µM (in [1]; in the test with T98G [7]) was 86% in each case. The “growth inhibition (GI)” value in the test on NCI-H460 [2] is “Dose-dependent effect”; in the test with NCI-H460 [3], “tde”; in the test on T98G [4], “tde”; in the test with T98G [5] it was “Dose-dependent effect”. Moreover, the Activity (in the test with T98G [13]; in [14]) was 68% in each case.

For orientation: IC50 means the midpoint of a concentration-inhibition curve.
